Assays:
[1] = human gut metagenome, 24 h, 2 µM
[2] = human gut metagenome, 24 h, 2 µM; remark: listed apart in the source
[3] = human gut metagenome, 24 h, 2 µM; remark: listed apart in the source
[4] = The drug is tested on WLS-082 corresponding to human gut metagenome with ENA study accession number: PRJEB37062 and ENA sample accession number: ERS12561751 for biotransformation under anaerobic condition. The drug concentrations were measured over 9 timepoints collected between 0 and 24 hours of incubation by liquid-chromatography-coupled mass spectrometry (LC–MS); settings: 2 µM
[5] = The drug is tested on WLS-069 corresponding to human gut metagenome with ENA study accession number: PRJEB37062 and ENA sample accession number: ERS12561748 for biotransformation under anaerobic condition. The drug concentrations were measured over 9 timepoints collected between 0 and 24 hours of incubation by liquid-chromatography-coupled mass spectrometry (LC–MS); settings: 2 µM
[6] = The drug is tested on Z-008 corresponding to metagenome with ENA study accession number: PRJEB37062 and ENA sample accession number: ERS12561808 for biotransformation under anaerobic condition. The drug concentrations were measured over 9 timepoints collected between 0 and 24 hours of incubation by liquid-chromatography-coupled mass spectrometry (LC–MS); settings: 2 µM
[7] = The drug is tested on Z-013 corresponding to rabbit gut metagenome with ENA study accession number: PRJEB37062 and ENA sample accession number: ERS12561813 for biotransformation under anaerobic condition. The drug concentrations were measured over 9 timepoints collected between 0 and 24 hours of incubation by liquid-chromatography-coupled mass spectrometry (LC–MS); settings: 2 µM
[8] = human gut metagenome, 24 h, 2 µM; remark: listed apart in the source
[9] = The drug is tested on WLS-370 corresponding to human gut metagenome with ENA study accession number: PRJEB37062 and ENA sample accession number: ERS12561793 for biotransformation under anaerobic condition. The drug concentrations were measured over 9 timepoints collected between 0 and 24 hours of incubation by liquid-chromatography-coupled mass spectrometry (LC–MS); settings: 2 µM
[10] = The drug is tested on WLS-007 corresponding to human gut metagenome with ENA study accession number: PRJEB37062 and ENA sample accession number: ERS12561742 for biotransformation under anaerobic condition. The drug concentrations were measured over 9 timepoints collected between 0 and 24 hours of incubation by liquid-chromatography-coupled mass spectrometry (LC–MS); settings: 2 µM
[11] = The drug is tested on Z-014 corresponding to rat gut metagenome with ENA study accession number: PRJEB37062 and ENA sample accession number: ERS12561814 for biotransformation under anaerobic condition. The drug concentrations were measured over 9 timepoints collected between 0 and 24 hours of incubation by liquid-chromatography-coupled mass spectrometry (LC–MS); settings: 2 µM
[12] = human gut metagenome, 24 h, 2 µM; remark: listed apart in the source
[13] = The drug is tested on WLS-090 corresponding to human gut metagenome with ENA study accession number: PRJEB37062 and ENA sample accession number: ERS12561753 for biotransformation under anaerobic condition. The drug concentrations were measured over 9 timepoints collected between 0 and 24 hours of incubation by liquid-chromatography-coupled mass spectrometry (LC–MS); settings: 2 µM
[14] = human gut metagenome, 24 h, 2 µM; remark: listed apart in the source
[15] = The drug is tested on WLS-027 corresponding to human gut metagenome with ENA study accession number: PRJEB37062 and ENA sample accession number: ERS12561744 for biotransformation under anaerobic condition. The drug concentrations were measured over 9 timepoints collected between 0 and 24 hours of incubation by liquid-chromatography-coupled mass spectrometry (LC–MS); settings: 2 µM
[16] = The drug is tested on Z-030 corresponding to mouse gut metagenome with ENA study accession number: PRJEB37062 and ENA sample accession number: ERS12561829 for biotransformation under anaerobic condition. The drug concentrations were measured over 9 timepoints collected between 0 and 24 hours of incubation by liquid-chromatography-coupled mass spectrometry (LC–MS); settings: 2 µM
[17] = The drug is tested on Z-025 corresponding to rabbit gut metagenome with ENA study accession number: PRJEB37062 and ENA sample accession number: ERS12561824 for biotransformation under anaerobic condition. The drug concentrations were measured over 9 timepoints collected between 0 and 24 hours of incubation by liquid-chromatography-coupled mass spectrometry (LC–MS); settings: 2 µM
[18] = human gut metagenome, 24 h, 2 µM; remark: listed apart in the source
[19] = human gut metagenome, 24 h, 2 µM; remark: listed apart in the source
[20] = The drug is tested on WLS-010 corresponding to human gut metagenome with ENA study accession number: PRJEB37062 and ENA sample accession number: ERS12561743 for biotransformation under anaerobic condition. The drug concentrations were measured over 9 timepoints collected between 0 and 24 hours of incubation by liquid-chromatography-coupled mass spectrometry (LC–MS); settings: 2 µM
Further: call rule not given here.

SMILES | Bacterial Biotransformation [1] | Bacterial Biotransformation [2] | Bacterial Biotransformation [3] | Bacterial Biotransformation [4] | Bacterial Biotransformation [5] | Bacterial Biotransformation [6] | Bacterial Biotransformation [7] | Bacterial Biotransformation [8] | Bacterial Biotransformation [9] | Bacterial Biotransformation [10] | Bacterial Biotransformation [11] | Bacterial Biotransformation [12] | Bacterial Biotransformation [13] | Bacterial Biotransformation [14] | Bacterial Biotransformation [15] | Bacterial Biotransformation [16] | Bacterial Biotransformation [17] | Bacterial Biotransformation [18] | Bacterial Biotransformation [19] | Bacterial Biotransformation [20]
O=c1[nH]c2ccccc2n1CCCN1CCC(n2c(=O)[nH]c3cc(Cl)ccc32)CC1 [DOMPERIDONE] | Compound NOT metabolized | Compound NOT metabolized | Compound NOT metabolized | Compound NOT metabolized | Compound NOT metabolized | Compound NOT metabolized | Compound NOT metabolized | Compound NOT metabolized | Compound NOT metabolized | Compound NOT metabolized | Compound NOT metabolized | Compound NOT metabolized | Compound NOT metabolized | Compound NOT metabolized | Compound NOT metabolized | Compound NOT metabolized | Compound NOT metabolized | – | – | –
C=CCN1CC[C@]23c4c5ccc(O)c4O[C@H]2C(=O)CC[C@@]3(O)[C@H]1C5 [NALOXONE] | Compound NOT metabolized | Compound NOT metabolized | Compound NOT metabolized | Compound NOT metabolized | Compound NOT metabolized | Compound NOT metabolized | Compound NOT metabolized | Compound NOT metabolized | Compound NOT metabolized | – | Compound NOT metabolized | Compound metabolized | Compound NOT metabolized | Compound NOT metabolized | Compound NOT metabolized | Compound NOT metabolized | Compound NOT metabolized | Compound NOT metabolized | Compound NOT metabolized | –
CCCc1nc(C(C)(C)O)c(C(=O)OCc2oc(=O)oc2C)n1Cc1ccc(-c2ccccc2-c2nnn[nH]2)cc1 [OLMESARTAN MEDOXOMIL] | Compound metabolized | Compound metabolized | Compound metabolized | Compound metabolized | Compound metabolized | Compound metabolized | Compound metabolized | Compound metabolized | Compound metabolized | Compound metabolized | Compound NOT metabolized | Compound NOT metabolized | Compound NOT metabolized | Compound NOT metabolized | Compound metabolized | Compound NOT metabolized | Compound metabolized | Compound NOT metabolized | Compound metabolized | –
NC(=O)N1c2ccccc2CC(=O)c2ccccc21 [OXCARBAZEPINE] | Compound NOT metabolized | Compound metabolized | Compound NOT metabolized | Compound NOT metabolized | Compound NOT metabolized | Compound NOT metabolized | Compound NOT metabolized | Compound NOT metabolized | Compound metabolized | – | Compound NOT metabolized | Compound metabolized | Compound NOT metabolized | Compound NOT metabolized | Compound NOT metabolized | Compound NOT metabolized | Compound NOT metabolized | Compound NOT metabolized | Compound NOT metabolized | –
COc1cc2nc(N3CCN(C(=O)c4ccco4)CC3)nc(N)c2cc1OC [PRAZOSIN] | Compound NOT metabolized | Compound NOT metabolized | Compound metabolized | Compound metabolized | – | Compound NOT metabolized | Compound NOT metabolized | Compound metabolized | Compound metabolized | Compound NOT metabolized | Compound NOT metabolized | Compound NOT metabolized | Compound metabolized | Compound metabolized | Compound NOT metabolized | Compound NOT metabolized | Compound NOT metabolized | Compound NOT metabolized | Compound metabolized | Compound metabolized
COC(=O)[C@H]1[C@H]2C[C@@H]3c4[nH]c5cc(OC)ccc5c4CCN3C[C@H]2C[C@@H](OC(=O)c2cc(OC)c(OC)c(OC)c2)[C@@H]1OC [RESERPINE] | Compound NOT metabolized | Compound metabolized | – | Compound metabolized | Compound metabolized | Compound NOT metabolized | Compound NOT metabolized | Compound metabolized | Compound metabolized | Compound NOT metabolized | Compound NOT metabolized | Compound metabolized | Compound metabolized | – | Compound metabolized | Compound NOT metabolized | Compound NOT metabolized | Compound NOT metabolized | – | Compound metabolized

— ChEMBL document CHEMBL5724914, “Linking interpersonal differences in gut microbiota composition and drug biotransformation activity” (2024)
